Experimental data as given in PMC9133015 (Nature Communications, 2022).
“And” between values parts separate entries of the source, which are not always exact repeats. Equal values may be shown once.

Key:
Experiment in all cases: Kinase inhibitor specificity profiling (Reaction Biology Corporation)
Assay type in all cases: biochemical
Parameters in all cases: % Enzyme Activity (relative to DMSO controls): concentration or dose not given beside the values
[1] = biological target: T1, panel of 370 protein kinases (Homo sapiens, UniProt Q13177); conditions: 2 h, kinase PAK2; read-out: % Enzyme Activity (relative to DMSO controls)
T1 construct: purchased Reaction Biology Corporation (assay service)

[2] = biological target: T2, panel of 370 protein kinases (Homo sapiens, UniProt O75582); conditions: 2 h, kinase MSK1/RPS6KA5; read-out: % Enzyme Activity (relative to DMSO controls)
T2 construct: purchased Reaction Biology Corporation (assay service)

[3] = biological target: T3, panel of 370 protein kinases (Homo sapiens, UniProt Q8NEV4); conditions: 2 h, kinase MYO3A; read-out: % Enzyme Activity (relative to DMSO controls)
T3 construct: purchased Reaction Biology Corporation (assay service)
T3 sequence (Q8NEV4 whole entry): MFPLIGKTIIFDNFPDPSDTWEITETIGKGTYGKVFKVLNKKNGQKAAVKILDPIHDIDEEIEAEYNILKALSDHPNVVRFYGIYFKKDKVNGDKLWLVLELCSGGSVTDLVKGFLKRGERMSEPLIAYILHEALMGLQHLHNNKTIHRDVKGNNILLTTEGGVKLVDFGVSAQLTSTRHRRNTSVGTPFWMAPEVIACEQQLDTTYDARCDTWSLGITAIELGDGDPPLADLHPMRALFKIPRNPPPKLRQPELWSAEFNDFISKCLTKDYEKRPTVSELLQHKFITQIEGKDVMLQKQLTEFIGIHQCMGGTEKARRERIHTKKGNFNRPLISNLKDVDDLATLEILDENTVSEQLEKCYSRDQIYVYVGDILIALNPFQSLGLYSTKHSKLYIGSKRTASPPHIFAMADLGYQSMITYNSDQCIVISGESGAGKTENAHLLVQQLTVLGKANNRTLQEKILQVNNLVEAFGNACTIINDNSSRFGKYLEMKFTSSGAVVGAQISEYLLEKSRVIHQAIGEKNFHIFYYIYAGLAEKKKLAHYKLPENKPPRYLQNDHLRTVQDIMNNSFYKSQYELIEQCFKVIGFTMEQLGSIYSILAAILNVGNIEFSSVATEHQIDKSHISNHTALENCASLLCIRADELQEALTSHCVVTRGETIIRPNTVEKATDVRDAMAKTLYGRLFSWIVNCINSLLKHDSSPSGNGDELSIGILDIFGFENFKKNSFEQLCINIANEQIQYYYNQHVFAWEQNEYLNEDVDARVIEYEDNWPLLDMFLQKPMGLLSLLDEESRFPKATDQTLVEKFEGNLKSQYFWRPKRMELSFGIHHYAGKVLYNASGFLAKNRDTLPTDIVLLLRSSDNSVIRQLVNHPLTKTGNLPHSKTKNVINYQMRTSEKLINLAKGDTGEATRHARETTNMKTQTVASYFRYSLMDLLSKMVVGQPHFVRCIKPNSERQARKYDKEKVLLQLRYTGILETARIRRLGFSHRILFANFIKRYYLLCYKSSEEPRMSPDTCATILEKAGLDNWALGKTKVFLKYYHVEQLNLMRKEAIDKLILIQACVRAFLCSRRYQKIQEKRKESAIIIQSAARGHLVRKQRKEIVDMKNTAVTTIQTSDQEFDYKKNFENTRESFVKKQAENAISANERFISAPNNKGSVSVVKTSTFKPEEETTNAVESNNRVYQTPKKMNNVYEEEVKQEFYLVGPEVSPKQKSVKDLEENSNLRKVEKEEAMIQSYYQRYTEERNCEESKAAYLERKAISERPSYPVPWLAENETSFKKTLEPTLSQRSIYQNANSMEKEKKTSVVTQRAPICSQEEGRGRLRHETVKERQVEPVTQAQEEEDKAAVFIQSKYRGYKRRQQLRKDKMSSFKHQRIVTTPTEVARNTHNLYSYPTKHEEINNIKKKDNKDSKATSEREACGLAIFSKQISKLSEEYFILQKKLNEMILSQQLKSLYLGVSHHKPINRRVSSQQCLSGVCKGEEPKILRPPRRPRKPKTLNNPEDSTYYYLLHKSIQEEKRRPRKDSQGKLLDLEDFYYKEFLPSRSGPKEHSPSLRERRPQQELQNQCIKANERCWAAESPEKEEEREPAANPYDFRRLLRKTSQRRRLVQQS

[4] = biological target: T4, panel of 370 protein kinases (Homo sapiens, UniProt P29320); conditions: 2 h, kinase EPHA3; read-out: % Enzyme Activity (relative to DMSO controls)
T4 construct: purchased Reaction Biology Corporation (assay service)

[5] = biological target: T5, panel of 370 protein kinases (Homo sapiens, UniProt Q15746); conditions: 2 h, kinase MLCK/MYLK; read-out: % Enzyme Activity (relative to DMSO controls)
T5 construct: purchased Reaction Biology Corporation (assay service)

[6] = biological target: T6, panel of 370 protein kinases (Homo sapiens, UniProt Q16512); conditions: 2 h, kinase PKN1/PRK1; read-out: % Enzyme Activity (relative to DMSO controls)
T6 construct: purchased Reaction Biology Corporation (assay service)

[7] = biological target: T7, panel of 370 protein kinases (Homo sapiens, UniProt Q96GX5); conditions: kinase MASTL
T7 construct: purchased Reaction Biology Corporation (assay service)
T7 sequence (Q96GX5 whole entry): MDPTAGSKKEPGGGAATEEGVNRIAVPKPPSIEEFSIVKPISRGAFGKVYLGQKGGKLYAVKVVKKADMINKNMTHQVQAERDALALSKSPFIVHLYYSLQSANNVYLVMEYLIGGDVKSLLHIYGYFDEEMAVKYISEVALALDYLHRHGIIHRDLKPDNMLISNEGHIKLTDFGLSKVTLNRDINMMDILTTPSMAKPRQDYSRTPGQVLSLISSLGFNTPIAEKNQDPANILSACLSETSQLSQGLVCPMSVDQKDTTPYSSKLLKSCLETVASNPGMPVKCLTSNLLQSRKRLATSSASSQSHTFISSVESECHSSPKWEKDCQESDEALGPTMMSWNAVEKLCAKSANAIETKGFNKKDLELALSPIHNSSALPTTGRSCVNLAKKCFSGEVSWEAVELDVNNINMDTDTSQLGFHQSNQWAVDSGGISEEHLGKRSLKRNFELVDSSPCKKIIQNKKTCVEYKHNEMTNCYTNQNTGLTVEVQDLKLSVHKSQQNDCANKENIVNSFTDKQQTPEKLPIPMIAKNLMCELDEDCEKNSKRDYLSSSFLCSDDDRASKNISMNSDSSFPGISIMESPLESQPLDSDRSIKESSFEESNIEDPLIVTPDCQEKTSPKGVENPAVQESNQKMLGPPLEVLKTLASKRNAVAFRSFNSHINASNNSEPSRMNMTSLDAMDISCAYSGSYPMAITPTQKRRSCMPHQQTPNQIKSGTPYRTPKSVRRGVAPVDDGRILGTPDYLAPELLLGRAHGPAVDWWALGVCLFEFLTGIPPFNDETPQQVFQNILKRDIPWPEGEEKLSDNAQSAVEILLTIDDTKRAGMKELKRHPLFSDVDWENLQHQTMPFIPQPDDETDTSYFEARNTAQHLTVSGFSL

[8] = biological target: T8, panel of 370 protein kinases (Homo sapiens, UniProt Q9HBH9); conditions: 2 h, kinase MNK2; read-out: % Enzyme Activity (relative to DMSO controls)
T8 construct: purchased Reaction Biology Corporation (assay service)

[9] = biological target: T9, panel of 370 protein kinases (Homo sapiens, UniProt O75460); conditions: 2 h, kinase ERN1/IRE1; read-out: % Enzyme Activity (relative to DMSO controls)
T9 construct: purchased Reaction Biology Corporation (assay service)

[10] = biological target: T10, panel of 370 protein kinases (Homo sapiens, UniProt O00238); conditions: 2 h, kinase ALK6/BMPR1B; read-out: % Enzyme Activity (relative to DMSO controls)
T10 construct: purchased Reaction Biology Corporation (assay service)
T10 sequence (O00238 14-502): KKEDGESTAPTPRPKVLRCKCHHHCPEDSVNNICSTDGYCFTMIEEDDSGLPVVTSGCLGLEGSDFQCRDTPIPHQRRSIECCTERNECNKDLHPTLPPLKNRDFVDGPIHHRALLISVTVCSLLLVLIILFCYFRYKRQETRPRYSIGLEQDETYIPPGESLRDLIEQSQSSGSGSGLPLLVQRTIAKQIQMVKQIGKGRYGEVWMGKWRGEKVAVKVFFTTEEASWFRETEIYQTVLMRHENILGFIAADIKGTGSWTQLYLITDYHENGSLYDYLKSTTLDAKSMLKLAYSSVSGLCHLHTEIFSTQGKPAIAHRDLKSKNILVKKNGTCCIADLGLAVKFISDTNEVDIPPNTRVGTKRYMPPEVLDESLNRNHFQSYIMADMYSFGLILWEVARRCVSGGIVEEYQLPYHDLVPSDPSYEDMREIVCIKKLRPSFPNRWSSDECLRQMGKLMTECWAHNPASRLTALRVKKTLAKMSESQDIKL

[11] = biological target: T11, panel of 370 protein kinases (Homo sapiens, UniProt Q13233); conditions: 2 h, kinase MEKK1; read-out: % Enzyme Activity (relative to DMSO controls)
T11 construct: purchased Reaction Biology Corporation (assay service)

[12] = biological target: T12, panel of 370 protein kinases (Homo sapiens, UniProt Q05397); conditions: 2 h, kinase FAK/PTK2; read-out: % Enzyme Activity (relative to DMSO controls)
T12 construct: purchased Reaction Biology Corporation (assay service)
T12 sequence (Q05397 whole entry): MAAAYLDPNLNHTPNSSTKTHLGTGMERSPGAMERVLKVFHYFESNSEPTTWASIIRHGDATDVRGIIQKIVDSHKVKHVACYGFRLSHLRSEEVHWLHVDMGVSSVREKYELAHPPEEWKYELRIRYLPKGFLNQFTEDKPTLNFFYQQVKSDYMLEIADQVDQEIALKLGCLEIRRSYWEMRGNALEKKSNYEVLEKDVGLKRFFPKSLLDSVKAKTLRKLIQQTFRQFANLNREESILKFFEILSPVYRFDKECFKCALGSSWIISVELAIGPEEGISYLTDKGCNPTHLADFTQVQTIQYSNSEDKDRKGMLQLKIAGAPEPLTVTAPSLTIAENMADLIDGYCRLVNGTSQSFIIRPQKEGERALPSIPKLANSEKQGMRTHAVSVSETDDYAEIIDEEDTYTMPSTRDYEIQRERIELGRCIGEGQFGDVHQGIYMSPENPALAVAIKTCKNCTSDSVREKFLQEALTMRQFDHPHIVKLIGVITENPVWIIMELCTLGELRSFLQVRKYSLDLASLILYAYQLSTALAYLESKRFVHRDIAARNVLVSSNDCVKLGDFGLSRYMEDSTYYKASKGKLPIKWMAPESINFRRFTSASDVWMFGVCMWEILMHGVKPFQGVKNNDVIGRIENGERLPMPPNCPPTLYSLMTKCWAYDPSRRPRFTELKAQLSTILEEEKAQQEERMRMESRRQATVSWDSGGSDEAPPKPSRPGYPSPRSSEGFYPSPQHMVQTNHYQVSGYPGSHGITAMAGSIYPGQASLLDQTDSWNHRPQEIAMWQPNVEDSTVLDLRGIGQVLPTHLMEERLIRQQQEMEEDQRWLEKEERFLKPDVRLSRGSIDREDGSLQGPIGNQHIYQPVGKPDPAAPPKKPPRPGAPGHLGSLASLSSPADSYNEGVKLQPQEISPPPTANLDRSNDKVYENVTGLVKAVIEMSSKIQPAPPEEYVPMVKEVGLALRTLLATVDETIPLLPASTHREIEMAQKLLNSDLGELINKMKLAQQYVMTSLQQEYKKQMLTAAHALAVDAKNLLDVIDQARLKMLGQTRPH

[13] = biological target: T13, panel of 370 protein kinases (Homo sapiens, UniProt P23443); conditions: 2 h, kinase p70S6K/RPS6KB1; read-out: % Enzyme Activity (relative to DMSO controls)
T13 construct: purchased Reaction Biology Corporation (assay service)

[14] = biological target: T14, panel of 370 protein kinases (Homo sapiens, UniProt Q86UX6); conditions: 2 h, kinase STK32C/YANK3; read-out: % Enzyme Activity (relative to DMSO controls)
T14 construct: purchased Reaction Biology Corporation (assay service)

[15] = biological target: T15, panel of 370 protein kinases (Homo sapiens, UniProt O75116); conditions: 2 h, kinase ROCK2; read-out: % Enzyme Activity (relative to DMSO controls)
T15 construct: purchased Reaction Biology Corporation (assay service)

[16] = biological target: T16, panel of 370 protein kinases (Homo sapiens, UniProt Q9Y243); conditions: 2 h, kinase AKT3; read-out: % Enzyme Activity (relative to DMSO controls)
T16 construct: purchased Reaction Biology Corporation (assay service)
T16 sequence (Q9Y243 whole entry): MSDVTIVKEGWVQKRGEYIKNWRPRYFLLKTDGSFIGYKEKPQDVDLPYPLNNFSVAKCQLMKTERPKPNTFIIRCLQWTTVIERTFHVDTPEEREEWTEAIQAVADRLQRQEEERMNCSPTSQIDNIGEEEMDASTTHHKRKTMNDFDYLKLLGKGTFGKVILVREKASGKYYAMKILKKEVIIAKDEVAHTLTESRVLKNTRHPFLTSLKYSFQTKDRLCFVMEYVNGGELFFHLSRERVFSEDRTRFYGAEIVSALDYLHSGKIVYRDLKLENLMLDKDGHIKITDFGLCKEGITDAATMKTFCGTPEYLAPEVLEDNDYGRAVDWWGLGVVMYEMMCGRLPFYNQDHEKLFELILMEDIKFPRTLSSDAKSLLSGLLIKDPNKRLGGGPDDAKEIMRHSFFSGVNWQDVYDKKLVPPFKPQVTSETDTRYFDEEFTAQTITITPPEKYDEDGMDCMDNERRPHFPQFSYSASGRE

[17] = biological target: T17, panel of 370 protein kinases (Homo sapiens, UniProt Q9H0K1); conditions: 2 h, kinase SIK2; read-out: % Enzyme Activity (relative to DMSO controls)
T17 construct: purchased Reaction Biology Corporation (assay service)

[18] = biological target: T18, panel of 370 protein kinases (Homo sapiens, UniProt P09769); conditions: 2 h, kinase FGR; read-out: % Enzyme Activity (relative to DMSO controls)
T18 construct: purchased Reaction Biology Corporation (assay service)
T18 sequence (P09769 whole entry): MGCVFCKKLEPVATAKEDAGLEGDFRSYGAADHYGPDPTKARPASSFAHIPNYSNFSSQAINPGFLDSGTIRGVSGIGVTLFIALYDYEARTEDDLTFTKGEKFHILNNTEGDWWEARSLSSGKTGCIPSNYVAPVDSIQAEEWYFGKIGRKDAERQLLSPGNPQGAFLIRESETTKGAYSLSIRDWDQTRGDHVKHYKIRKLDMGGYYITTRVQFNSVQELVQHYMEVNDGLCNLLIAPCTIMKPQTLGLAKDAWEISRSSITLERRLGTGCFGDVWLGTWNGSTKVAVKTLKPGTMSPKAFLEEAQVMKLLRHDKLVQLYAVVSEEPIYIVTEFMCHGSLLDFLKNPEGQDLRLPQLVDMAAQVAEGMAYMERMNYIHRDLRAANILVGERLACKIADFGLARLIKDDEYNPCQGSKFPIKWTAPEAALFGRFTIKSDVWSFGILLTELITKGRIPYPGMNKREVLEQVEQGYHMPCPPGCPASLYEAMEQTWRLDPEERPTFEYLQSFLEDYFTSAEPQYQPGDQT

[19] = biological target: T19, panel of 370 protein kinases (Homo sapiens, UniProt P19784); conditions: 2 h, kinase CK2a2; read-out: % Enzyme Activity (relative to DMSO controls)
T19 construct: purchased Reaction Biology Corporation (assay service)

[20] = biological target: T20, panel of 370 protein kinases (Homo sapiens, UniProt P07332); conditions: 2 h, kinase FES/FPS; read-out: % Enzyme Activity (relative to DMSO controls)
T20 construct: purchased Reaction Biology Corporation (assay service)

[21] = biological target: T21, panel of 370 protein kinases (Homo sapiens, UniProt P06241); conditions: 2 h, kinase FYN; read-out: % Enzyme Activity (relative to DMSO controls)
T21 construct: purchased Reaction Biology Corporation (assay service)

SMILES: CCN1CCN(C(=O)c2ccc(Nc3ncc(F)c(-c4ccc5nc(N(C)C)sc5c4)n3)nc2)CC1 [YK-2-69]
- remaining activity at 1 µM [1]: 94.7%
- remaining activity at 1 µM [2]: 115%
- remaining activity at 1 µM [3]: 103%
- remaining activity at 1 µM [4]: 95.2%
- remaining activity at 1 µM [5]: 97.5%
- remaining activity at 1 µM [6]: 75.7%
- % Enzyme Activity (relative to DMSO controls) [7]: 100.08% and 99.24%
- remaining activity at 1 µM [8]: 89.2%
- remaining activity at 1 µM [9]: 89.3%
- remaining activity at 1 µM [10]: 90.5%
- remaining activity at 1 µM [11]: 99.7%
- remaining activity at 1 µM [12]: 95.9%
- remaining activity at 1 µM [13]: 99.7%
- remaining activity at 1 µM [14]: 96.8%
- remaining activity at 1 µM [15]: 93.2%
- remaining activity at 1 µM [16]: 88.2%
- remaining activity at 1 µM [17]: 95.6%
- remaining activity at 1 µM [18]: 106%
- remaining activity at 1 µM [19]: 51.4%
- remaining activity at 1 µM [20]: 85.3%
- remaining activity at 1 µM [21]: 104%
